In patent publication US11739098B2 (BRISTOL-MYERS SQUIBB COMPANY, priority 2017, dated 2023):

Experiments:
Assay type in all cases: cell-based
[1] = target: T1, human TLR7 (Homo sapiens, UniProt Q9NYK1); test: TLR7 inhibition reporter assay (HEK-Blue cells, SEAP reporter, gardiquimod stimulation); conditions: HEK-Blue cells overexpressing human TLR7, SEAP reporter, gardiquimod 7.5 μM
T1 construct: host or cells: HEK-Blue cells (HEK293-derived reporter line)
T1 sequence (Q9NYK1 27-1049): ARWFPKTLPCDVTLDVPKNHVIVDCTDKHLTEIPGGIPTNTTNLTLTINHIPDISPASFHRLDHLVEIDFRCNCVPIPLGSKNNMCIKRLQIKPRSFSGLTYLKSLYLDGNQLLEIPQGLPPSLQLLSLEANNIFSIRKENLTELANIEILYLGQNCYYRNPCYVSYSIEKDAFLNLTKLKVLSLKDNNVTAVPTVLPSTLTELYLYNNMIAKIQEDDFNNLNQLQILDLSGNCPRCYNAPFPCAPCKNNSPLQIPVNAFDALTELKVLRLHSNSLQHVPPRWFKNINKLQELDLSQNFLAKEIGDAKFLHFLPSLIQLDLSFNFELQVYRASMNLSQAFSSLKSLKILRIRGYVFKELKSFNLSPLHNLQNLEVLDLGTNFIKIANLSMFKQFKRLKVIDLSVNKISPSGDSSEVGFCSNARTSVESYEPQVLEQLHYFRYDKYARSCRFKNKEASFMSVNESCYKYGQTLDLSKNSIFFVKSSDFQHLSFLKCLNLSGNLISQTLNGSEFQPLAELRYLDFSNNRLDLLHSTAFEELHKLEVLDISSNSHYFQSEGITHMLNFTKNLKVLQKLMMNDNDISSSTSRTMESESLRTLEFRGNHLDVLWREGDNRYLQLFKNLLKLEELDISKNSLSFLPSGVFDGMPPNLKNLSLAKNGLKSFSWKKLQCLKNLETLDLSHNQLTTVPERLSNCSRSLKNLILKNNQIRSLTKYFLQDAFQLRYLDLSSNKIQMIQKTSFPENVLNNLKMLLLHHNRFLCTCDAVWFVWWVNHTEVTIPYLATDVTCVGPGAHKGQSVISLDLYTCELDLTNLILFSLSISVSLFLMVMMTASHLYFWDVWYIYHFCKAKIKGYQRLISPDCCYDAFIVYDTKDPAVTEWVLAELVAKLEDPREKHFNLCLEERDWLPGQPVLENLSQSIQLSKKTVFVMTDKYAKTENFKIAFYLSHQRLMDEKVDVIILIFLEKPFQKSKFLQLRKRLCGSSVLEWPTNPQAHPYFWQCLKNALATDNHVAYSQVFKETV
In short: (§1)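 Read-out is SEAP activity in HEK-Blue detection medium after 22 h at 37 °C, converted to percent inhibition against agonist-plus-DMSO and reference-inhibitor controls. Cells saw compound (0.05 nM–50 μM, 30 min, room temperature) before gardiquimod 7.5 μM, R848 15.9 μM or ODN2006 5 nM for TLR7, TLR8 and TLR9, respectively.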

[2] = target: T2, human TLR8 (Homo sapiens, UniProt Q9NR97); test: TLR8 inhibition reporter assay (HEK-Blue cells, SEAP reporter, R848 stimulation); conditions: HEK-Blue cells overexpressing human TLR8, SEAP reporter, R848 15.9 μM
T2 construct: host or cells: HEK-Blue cells (HEK293-derived reporter line)
T2 sequence (Q9NR97 27-1041): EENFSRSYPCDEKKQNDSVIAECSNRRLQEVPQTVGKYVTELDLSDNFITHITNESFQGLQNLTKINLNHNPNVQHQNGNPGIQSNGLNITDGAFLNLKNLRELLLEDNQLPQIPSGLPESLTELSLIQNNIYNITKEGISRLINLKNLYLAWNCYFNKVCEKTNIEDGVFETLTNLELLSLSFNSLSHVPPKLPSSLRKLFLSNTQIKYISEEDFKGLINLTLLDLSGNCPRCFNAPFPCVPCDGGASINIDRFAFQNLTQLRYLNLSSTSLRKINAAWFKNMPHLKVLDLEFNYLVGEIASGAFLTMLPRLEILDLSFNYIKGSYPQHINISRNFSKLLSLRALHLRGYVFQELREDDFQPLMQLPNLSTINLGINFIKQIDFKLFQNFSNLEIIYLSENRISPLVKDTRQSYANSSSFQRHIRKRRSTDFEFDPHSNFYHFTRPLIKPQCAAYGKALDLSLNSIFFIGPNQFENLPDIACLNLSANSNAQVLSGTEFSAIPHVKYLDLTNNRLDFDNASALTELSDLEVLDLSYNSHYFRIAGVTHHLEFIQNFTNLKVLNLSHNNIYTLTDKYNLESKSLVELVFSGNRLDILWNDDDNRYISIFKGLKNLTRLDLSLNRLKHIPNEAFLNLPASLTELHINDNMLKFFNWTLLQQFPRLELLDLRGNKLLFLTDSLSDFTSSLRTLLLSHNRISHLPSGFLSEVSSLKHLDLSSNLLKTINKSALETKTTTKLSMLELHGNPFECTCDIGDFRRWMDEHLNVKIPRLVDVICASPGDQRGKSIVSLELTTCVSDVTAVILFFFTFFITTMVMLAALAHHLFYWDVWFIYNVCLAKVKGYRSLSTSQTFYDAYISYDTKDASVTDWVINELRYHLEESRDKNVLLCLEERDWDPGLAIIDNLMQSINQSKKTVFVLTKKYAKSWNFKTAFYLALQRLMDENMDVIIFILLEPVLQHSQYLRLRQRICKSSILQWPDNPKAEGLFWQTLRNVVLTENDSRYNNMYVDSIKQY
In short: as §1

[3] = target: T3, human TLR9 (Homo sapiens, UniProt Q9NR96); test: TLR9 inhibition reporter assay (HEK-Blue cells, SEAP reporter, ODN2006 stimulation); conditions: HEK-Blue cells overexpressing human TLR9, SEAP reporter, ODN2006 5 nM
T3 construct: host or cells: HEK-Blue cells (HEK293-derived reporter line)
T3 sequence (Q9NR96 26-1032): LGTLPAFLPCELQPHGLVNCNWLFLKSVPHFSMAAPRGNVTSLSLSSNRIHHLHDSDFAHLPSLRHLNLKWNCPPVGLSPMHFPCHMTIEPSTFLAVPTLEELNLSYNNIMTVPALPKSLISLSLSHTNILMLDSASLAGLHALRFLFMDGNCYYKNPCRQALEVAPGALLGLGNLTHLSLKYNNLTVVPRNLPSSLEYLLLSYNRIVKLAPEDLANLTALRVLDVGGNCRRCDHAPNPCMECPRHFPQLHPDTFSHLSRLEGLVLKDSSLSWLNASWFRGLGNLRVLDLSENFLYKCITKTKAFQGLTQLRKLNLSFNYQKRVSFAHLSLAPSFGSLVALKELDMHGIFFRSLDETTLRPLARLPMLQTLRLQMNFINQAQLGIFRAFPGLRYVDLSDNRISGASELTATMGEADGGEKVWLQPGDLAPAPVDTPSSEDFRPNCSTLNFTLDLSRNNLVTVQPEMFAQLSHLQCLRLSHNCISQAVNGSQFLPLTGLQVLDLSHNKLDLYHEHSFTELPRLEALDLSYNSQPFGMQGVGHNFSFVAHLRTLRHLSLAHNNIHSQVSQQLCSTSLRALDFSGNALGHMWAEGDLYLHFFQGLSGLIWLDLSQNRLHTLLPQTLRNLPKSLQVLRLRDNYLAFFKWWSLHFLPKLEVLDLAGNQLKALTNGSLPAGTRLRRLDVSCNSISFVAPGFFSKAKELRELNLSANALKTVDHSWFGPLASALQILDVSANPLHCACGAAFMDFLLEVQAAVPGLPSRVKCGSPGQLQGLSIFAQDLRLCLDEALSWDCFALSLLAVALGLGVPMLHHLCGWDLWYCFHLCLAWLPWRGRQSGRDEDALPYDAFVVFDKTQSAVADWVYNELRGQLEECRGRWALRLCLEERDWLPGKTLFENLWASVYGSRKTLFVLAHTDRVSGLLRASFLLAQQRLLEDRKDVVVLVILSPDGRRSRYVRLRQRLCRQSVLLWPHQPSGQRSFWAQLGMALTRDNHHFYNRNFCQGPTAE
In short: as §1

| IC50 [1] [nM] | IC50 [2] [nM] | IC50 [3] [nM] | SMILES |
| --- | --- | --- | --- |
| < 100 | < 100 | 1000 to 50000 | CC(C)c1c(-c2cc3cn[nH]c3cn2)[nH]c2ccc(C3CCNCC3)cc12 [Example 179, 5-(3-isopropyl-5-(piperidin-4-yl)-1H-indol-2-yl)-1H-pyrazolo[3,4-c]pyridine] |
| 1000 to 50000 | 1000 to 50000 | 100 to 1000 | CNCCN1CCC(c2ccc3[nH]c(-c4ccc5[nH]ccc5c4)c(C)c3c2)CC1 [Example 667, N-methyl-2-(4-(3-methyl-1H,1′H-[2,5′-biindol]-5-yl)piperidin-1-yl)ethan-1-amine] |
| 1000 to 50000 | > 3130 | 1000 to 50000 | CNC(=O)CN1CCC(c2ccc3[nH]c(-c4cnc5ccnn5c4)c(C(C)C)c3c2)CC1 [Example 360, 2-(4-(3-isopropyl-2-(pyrazolo[1,5-a]pyrimidin-6-yl)-1H-indol-5-yl)piperidin-1-yl)-N-methylacetamide] |
| 100 to 1000 | < 100 | 1000 to 50000 | CCc1c(-c2ccnc3[nH]ncc23)[nH]c2ccc(C3CCN(Cc4cncn4C)CC3)cc12 [Example 911, 4-(3-ethyl-5-(1-((1-methyl-1H-imidazol-5-yl)methyl)piperidin-4-yl)-1H-indol-2-yl)-1H-pyrazolo[3,4-b]pyridine] |
| > 3130 | 1000 to 50000 | 1000 to 50000 | Cc1nn2ccc(-c3[nH]c4ccc(C5CCN(CC(=O)N(C)C)CC5)cc4c3C(C)C)nc2c1F [Example 400, 2-(4-(2-(3-fluoro-2-methylpyrazolo[1,5-a]pyrimidin-5-yl)-3-isopropyl-1H-indol-5-yl)piperidin-1-yl)-N,N-dimethylacetamide] |
| 1000 to 50000 | 1000 to 50000 | 1000 to 50000 | CC(C)c1c(-c2ccc3nc(N)cn3n2)[nH]c2ccc(C3CCNCC3)cc12 [Example 24, 6-(3-isopropyl-5-(piperidin-4-yl)-1H-indol-2-yl)imidazo[1,2-b]pyridazin-2-amine] |
| 1000 to 50000 | 100 to 1000 | 1000 to 50000 | Cc1cc(-c2[nH]c3ccc(C4CCN(Cc5ccn(C)n5)CC4)cc3c2C(C)C)cn2nncc12 [Example 882, 6-(3-isopropyl-5-(1-((1-methyl-1H-pyrazol-3-yl)methyl)piperidin-4-yl)-1H-indol-2-yl)-4-methyl-[1,2,3]triazolo[1,5-a]pyridine] |
| 100 to 1000 | 100 to 1000 | 100 to 1000 | CC(C)c1c(-c2ccc3c(N)noc3c2)[nH]c2ccc(C3CCNCC3)cc12 [Example 86, 6-(3-isopropyl-5-(piperidin-4-yl)-1H-indol-2-yl)benzo[d]isoxazol-3-amine] |
| < 100 | < 100 | 1000 to 50000 | Cc1c(-c2[nH]c3ccc(C4CCN(CC(C)(C)O)CC4)cc3c2C(C)C)cn2ccnc2c1Cl [Example 772, 1-(4-(2-(8-chloro-7-methylimidazo[1,2-a]pyridin-6-yl)-3-isopropyl-1H-indol-5-yl)piperidin-1-yl)-2-methylpropan-2-ol] |
| < 100 | < 100 | 100 to 1000 | COc1cc(-c2[nH]c3ccc(C4CCN(CC(=O)N(C)C)CC4)cc3c2C(C)C)cn2ccnc12 [Example 433, 2-(4-(3-isopropyl-2-(8-methoxyimidazo[1,2-a]pyridin-6-yl)-1H-indol-5-yl)piperidin-1-yl)-N,N-dimethylacetamide] |
| < 100 | < 100 | 1000 to 50000 | CNC(=O)CN1CCC(c2ccc3[nH]c(-c4ccc(C#N)c5ncccc45)c(C(C)C)c3c2)CC1 [Example 371, 2-(4-(2-(8-cyanoquinolin-5-yl)-3-isopropyl-1H-indol-5-yl)piperidin-1-yl)-N-methylacetamide] |
| 100 to 1000 | 1000 to 50000 | 1000 to 50000 | Cc1cc(-c2[nH]c3ccc(C4CCN(C(=O)CN(C)C)CC4)cc3c2C(C)C)cn2nncc12 [Example 467, 2-(dimethylamino)-1-(4-(3-isopropyl-2-(4-methyl-[1,2,3]triazolo[1,5-a]pyridin-6-yl)-1H-indol-5-yl)piperidin-1-yl)ethan-1-one] |
| 100 to 1000 | < 100 | 100 to 1000 | CCc1c(-c2ccnc3[nH]ncc23)[nH]c2ccc(C3CCN(Cc4cnc[nH]4)CC3)cc12 [Example 863, 4-(5-(1-((1H-imidazol-5-yl)methyl)piperidin-4-yl)-3-ethyl-1H-indol-2-yl)-1H-pyrazolo[3,4-b]pyridine] |
| < 100 | < 100 | 100 to 1000 | Cc1cc(-c2[nH]c3ccc(C4CCN(CC#N)CC4)cc3c2C(C)C)cc2cnnn12 [Example 964, 2-(4-(3-isopropyl-2-(7-methyl-[1,2,3]triazolo[1,5-a]pyridin-5-yl)-1H-indol-5-yl)piperidin-1-yl)acetonitrile] |
| 100 to 1000 | < 100 | 100 to 1000 | CCc1c(-c2ccnc3[nH]ccc23)[nH]c2ccc(C3CCN(C4CCN(CC(C)C)CC4)CC3)cc12 [Example 849, 4-(3-ethyl-5-(1′-isobutyl-[1,4′-bipiperidin]-4-yl)-1H-indol-2-yl)-1H-pyrrolo[2,3-b]pyridine] |
